According to patent publication US5681816A, “Method of inducing temporary paralysis of the gastrointestinal tract during medical procedure” (priority 1994, dated 1997):
Where two headings read alike, the source gives them in different places.

Legend:
[1] = for blood pressure and pulse: first patient
Experimental: During the period of observation, vital signs (blood pressure and pulse) and symptoms were continuously recorded. The protocol was such that if the blood pressure dropped by more than 20 mm Hg systolic or diastolic or the pulse increased by more than 30 beats per minute for 2 minutes, intravenous saline was to be administered and the study terminated.

gastroduodenal motility = conditions: cited from earlier work
[2] = in vivo; cited from earlier work
opossum duodenum = conditions: cited from earlier work
[3] = in vivo; cited from earlier work; remark: listed apart in the source
[4] = test system: rat and guinea pig isolated midcolon sections; conditions: cited from earlier work
isolated human ileum = conditions: all frequencies tested; cited from earlier work
[5] = 1 mg intravenously followed by 2 mg IV over 2 hours

Compound: CC[C@H](C)[C@H](NC(=O)[C@H](CO)NC(=O)[C@H](CC(N)=O)NC(=O)[C@H](CC(C)C)NC(=O)[C@H](Cc1ccc(O)cc1)NC(=O)[C@H](CCCCN)NC(=O)[C@H](CCCCN)NC(=O)[C@@H](NC(=O)[C@H](C)NC(=O)[C@H](CCSC)NC(=O)[C@H](CCC(N)=O)NC(=O)[C@H](CCCCN)NC(=O)[C@H](CCCN=C(N)N)NC(=O)[C@H](CC(C)C)NC(=O)[C@H](CCCN=C(N)N)NC(=O)[C@@H](NC(=O)[C@H](Cc1ccc(O)cc1)NC(=O)[C@H](CC(N)=O)NC(=O)[C@H](CC(=O)O)NC(=O)[C@@H](NC(=O)[C@H](Cc1ccccc1)NC(=O)[C@@H](NC(=O)[C@H](C)NC(=O)[C@H](CC(=O)O)NC(=O)[C@H](CO)NC(=O)[C@@H](N)Cc1c[nH]cn1)C(C)C)[C@@H](C)O)[C@@H](C)O)C(C)C)C(=O)N[C@@H](CC(C)C)C(=O)N[C@@H](CC(N)=O)C(N)=O [VIP, vasoactive intestinal peptide]
- blood pressure and pulse ([1]; 5 ng VIP per kg): slight decrease in systolic pressure and increase in pulse
- blood pressure and pulse ([1]; higher dose level (20 ng/kg)): these effects on blood pressure and pulse were not seen
- blood pressure or pulse ([1]; second patient, any of the dosages tested): no significant change
- effect on blood pressure ([1]; summary statement): without a significant effect
- blood pressure or pulse ([1]; third patient, any dose): no significant change
- adverse reactions such as nausea or vomiting ([1]; three patients): None of the three patients studied experienced any adverse reactions

Compound: glucagon
- cycle length and time between contractile activity in the duodenum (gastroduodenal motility; [5]): significantly increased
- mean pressure period (gastroduodenal motility; [5]): decreased
- contractions in the antrum (gastroduodenal motility; doses as high as 2 mg): does not reduce contractions
- colonoscopic evaluation (gastroduodenal motility; in vivo): does not facilitate
- gastroduodenal motility (gastroduodenal motility; in vivo): variable reduction
- minimally effective dose for reduction in gastroduodenal motility (gastroduodenal motility; in vivo): 0.5 mg
- dose at which nausea and vomiting can appear [2]: 1 mg
- effect on opossum duodenum (opossum duodenum): stimulated relaxation

Compound: CN1[C@@H]2CC[C@H]1C[C@@H](OC(=O)C(CO)c1ccccc1)C2 (stereo partly drawn) [atropine]
- beneficial effects during endoscopies (patient tolerance, facilitation of endoscopy) [3]: failed to demonstrate any beneficial effects
- ascending contractions ([4]; all grades of stretch): strongly inhibits
- descending relaxation [4]: no effect
- response to electrical field stimulation (isolated human ileum): primary relaxation
